Three compounds from patent publication US5698564A, “Diphenyl disulfide compounds” (Nisshin Flour Milling Co., Ltd., priority 1994, dated 1997) can be followed below.

Each structure is given as a SMILES string.

Test [1] deals with production of IL-1β (THP-1 cells). As to the kind of experiment: inhibition of the production of IL-1β in THP-1 cells stimulated with PMA and polyinosic acid (enzyme immunoassay). Conditions: Homo sapiens, PMA 2 μg/ml and polyinosic acid, 24 hours, read-out: IC50 (concentration to inhibit 50% the IL-1β production). Type of test: cell-based. As for the experimental part: Compounds 1-3, the present diphenyl disulfide compounds obtained in Examples 1 and 2, were evaluated for the activity to inhibit the production of IL-1β, in accordance with the following method.
(§1) The THP-1 cells derived from human peripheral blood (ATCC TIB202) were suspended in RPMI 1640 medium (available from Bio-Whittaker Co., Ltd.) containing 10% (v/v) of fetal bovine serum, 2 mM of glutamine, 50 μM of 2-mercaptoethanol, 60 μg/ml of penicillin and 100 μg/ml of streptomycin.
The suspension of the THP-1 cell was subcultured at 37° C. under the atmosphere of […] and 5% carbon dioxide. A portion of the subcultured suspension was centrifuged at 1200 rpm at room temperature for 3 minutes to recover the subcultured THP-1 cells.
(§2) The resulting THP-1 cells were resuspended in RPMI 1640 medium containing 2% (v/v) of fetal bovine serum, 2 mM of glutamine, 50 μM of 2-mercaptoethanol, 60 μg/ml of penicillin and 100 μg/ml of streptomycin so as to provide a final THP-1 cell concentration of 3×10^6 cells/ml.
The resuspension of the cell was dispensed in 0.5 ml portions to wells of a 24-well plate for cell culture. Then, each solution of the present Compounds 1-3 dissolved in DMSO at the respective specified concentrations was added in 2.5 μl portions to each well. The plate was incubated at 37° C. under the atmosphere of 95% […] and 5% carbon dioxide for one hour. Then, 12-o-tetradecanoylphorbol-13-acetate (PMA) and polyinosic acid were added to each well so as to provide final concentrations of 2 μg/ml and […] respectively. The plate was incubated at 37° C. under the atmosphere of 95% […] and 5% carbon dioxide for 24 hours. After incubation, a supernatant was recovered from each well by means of Pipetteman available from Gilson Co., Ltd. Then, an amount of the IL-1β in the supernatant was assayed by means of the enzyme immunoassay kit available from Cayman Chemical Co., Ltd. […]

Test [2] relates to release of TNFα (THP-1 cells). As to the kind of experiment: inhibition of the release of TNFα in THP-1 cells stimulated with PMA and polyinosic acid (ELISA). Conditions: Homo sapiens, PMA 2 μg/ml and polyinosic acid 200 μg/ml, 24 hours, read-out: IC50 (concentration to inhibit 50% the TNFα release). Type of test: cell-based. On the procedure: Compound 1, the present diphenyl disulfide compound obtained in Example 1, was evaluated for the activity to inhibit the release of TNFα, in accordance with the following method.
as §1
The suspension of THP-1 cell was subcultured at 37° C. under the atmosphere of 95% […] and 5% carbon dioxide. A portion of the subcultured suspension was centrifuged at 1200 rpm at room temperature for 3 minutes to recover the subcultured THP-1 cells.
as §2
The resuspension of the cell was dispensed in 0.5 ml portions to wells of a 24-well plate for cell culture, and incubated at 37° C. for one hour. Each solution of the present Compound 1 dissolved in DMSO at the respective specified concentrations was added in 2.5 μl portions to each well. The plate was incubated at 37° C. under the atmosphere of 95% […] and 5% carbon dioxide for one hour. […]
A general note: An ELISA detects its analyte on a solid surface through an enzyme-linked reagent.

Take `Nc1ccccc1SSc1ccccc1Nc1ncccn1` [Compound 1]: the IC50 in test [1] was found to be 3.8 µM; in test [2] it was 19 µM.

As for `c1cnc(Nc2ccccc2SSc2ccccc2Nc2ncccn2)nc1` [Compound 2], the IC50 in test [1] was 34 µM.

Take `O=[N+]([O-])c1ccc(SSc2ccccc2-c2nc3ccccc3[nH]2)c([N+](=O)[O-])c1` [Compound 3]: the IC50 in test [1] worked out at 34 µM.
